Results: patent US20210364494A1, “CELL-SUBSTRATE IMPEDANCE MONITORING OF CANCER CELLS OF DIFFERENT LINEAGE, ORIGIN, OR STAGE” (ACEA BIOSCIENCES, INC., priority 2017, published 2021)

What was measured:
Type in all cases: cell-based, human
A549 cells = assay: Dynamic monitoring of drug interaction with target cells by RT-CES
Description: Drug Treatment and Cytotoxicity Assessment. […] The indicated cell numbers were seeded per chamber of ACEA's 16X or 96X E-Plate (cartridge for monitoring cell-substrate impedance) in 100 μL final volume.
In order to observe the kinetics of drug interaction with target cells, A549 non-small lung cancer cells were seeded in ACEA 96X E-Plate™ and continuously monitored until the cells reached the log growth phase at which point different concentrations of paclitaxel were added to the cells at the indicated final concentration. […] While it remains to be determined if this phenomenon is due to metabolism and inactivation of paclitaxel or due to the emergence of paclitaxel-resistant subpopulation, this experiment clearly exemplifies the tremendous advantage of real-time measurement which is offered by the RT-CES system and allows the user to the opportunity to observe and assess the entire history of drug interaction with the target cells which provides further information in addition to cell viability or cytotoxicity. The phenomenon observed in FIG. 20A would've been easily missed by traditional single-point assays such as MTT.
Yet another major advantage of using the RT-CES system to continually monitor the interaction of drugs with target cells is that the user can obtain insight into the mechanism of action of the drug of interest. […] The cells were treated with either DMSO as the vehicle control or with 100 μM Olomoucine which is a CDK inhibitor and induces cell cycle arrest either at G1→S transition or at the G2→M transition, depending on the cell line. […] The control cells treated with DMSO continue to proliferate until they reach confluence, at which time they are contact inhibited and the Cell Index recording levels off. […]
(§1) Inhibition of NK-mediated cytolysis of target cells by agents which block the signaling pathways leading to cytotoxicity. […] We calculated percent inhibition of cytolysis for both inhibitors at different time points after NK addition. […]

[1] = test system: NK-92-mediated cytolysis of A549 cells; assay: Inhibition of NK-92-mediated cytolysis of target cells by signaling pathway inhibitors (RT-CES)
Description: (FIG. 31A) A549 cells were seeded in the chambers of E-PLATES. Twenty four hours after seeding NK-cells at a density of 16:1 (E/T ratio) were pre-incubated with the different concentrations of the MEK inhibitor PD 98059 for thirty minutes and then added to A549 cells at the indicated time point (arrow). The viability of A549 cells were continually monitored using the RT-CES system. (FIG. 31B) The extent of NK-92 mediated cytolystic activity in the presence of MEK inhibitor was calculated at the indicated times post-NK addition as described in materials and methods section. (FIG. 31C) The effect of PI3 Kinase inhibitor Wortmannin on NK-92 mediated cytolysis of A549 cells. The cells were treated with the inhibitor as described in (FIG. 31A). (FIG. 31D) Percent cytolytic activity of NK-92 cells was calculated at the end of the experiment described in (FIG. 31C).
Cytolytic analysis. Target cells were seeded into the chambers of either 16-chamber or 96-chamber E-plate in 100 μL of media. Cell growth was dynamically monitored using the RT-CES system for a period of 24-34 hours, depending on the experiment until they reached log growth phase and formed a monolayer. […]
as §1

H460 cells = assay: Time-dependent cell index of cancer cells treated with anticancer drug (cell-substrate impedance)
Description: In this experiment, H460 cells were introduced into chambers of a 16X cell-substrate impedance monitoring cartridge (16X E-Plate). The cartridge was positioned on a cartridge station that was located in an incubator maintaining conditions of 37° C. and 5% CO2. The cells were cultured and treated at their exponential growth phase with different concentrations of paclitaxel. The dynamic response of the cells to different doses of paclitaxel was monitored by monitoring cell-substrate impedance in real time every 15 minutes for 50 hours after treatment using a cell-substrate impedance monitoring system. The cell-substrate impedance monitoring system calculated the cell index at each time point monitored and plotted the cell index as a function of time. […] However, the cell index reached a minimum at a time dependent on the compound concentration, between about 15 hours and 20 hours after compound addition. After that point, there was a gradual increase in cell index in these chambers.
H460 cells were introduced into chambers of a 16X cell-substrate impedance monitoring cartridge (16X E-Plate). […] The dynamic response of the cells to different doses of AC101103 was monitored by measuring impedance in real time every 30 minutes for about 20 hours after treatment on the cell-substrate monitoring system. […]

[2] = A549 cells, highest concentration

| Compound | effect of inhibitor alone on target cell baseline (A549 cells; A549 target cells incubated with inhibitor alone, no NK cells) | inhibition of NK-92-mediated cytolysis ([1]; NK-92 pre-incubated with inhibitor, then added to A549 target cells) | time dependence of percent inhibition of cytolysis ([1]; different time points after NK addition) | initial effect on Cell Index (with Annexin V staining) (A549 cells; [2]) | later course of Cell Index after the initial effect (A549 cells; [2]) | time over which cell index exhibited a near-constant value (H460 cells; 33 nanomolar) | cell index response after compound addition (H460 cells; concentrations between 67 nanomolar and 500 nanomolar) |
| --- | --- | --- | --- | --- | --- | --- | --- |
| COc1cccc(-c2cc(=O)c3ccccc3o2)c1N [PD98059] | minimal effect on the baseline | dose-dependently inhibited NK-92-mediated cytolysis of A549 cells | consistent inhibition of cytolysis at all the indicated time points |  |  |  |  |
| CC(=O)O[C@H]1C(=O)[C@@]2(C)[C@H]([C@H](OC(=O)c3ccccc3)[C@]3(O)C[C@H](OC(=O)[C@H](O)[C@@H](NC(=O)c4ccccc4)c4ccccc4)C(C)=C1C3(C)C)[C@]1(OC(C)=O)CO[C@@H]1C[C@@H]2O [paclitaxel] |  |  |  | initially induces a cytotoxic effect which is mainly due to cell death | recover from the initial cytotoxic effect of the drug and start to re-proliferate | about 15 hours | gradual decrease in cell index |
